Results published in patent publication US5276120A, “Process for forming omega-deuxy-azasugars” (The Scripps Research Institute, priority 1992, dated 1994).
Like-named read-outs stand apart in the source and are kept apart here.

Key:
α-Glucosidase (BY) = target: T1, α-Glucosidase (BY) (Saccharomyces cerevisiae, UniProt P07265); experiment: Glycosidase inhibition, α-glucosidase from brewers yeast; type: biochemical
T1 construct: purchased Sigma
Source text: (§1) Materials: All of the buffers, enzymes, and substrates were purchased from Sigma and used as received. These included piperazine-N,N'-bis(2-ethanesulfonic acid) (PIPES), sodium acetate (NaOAc), ethylenediaminetetraacetic acid (EDTA), β-D-glucosidase (from sweet almond), p-nitrophenyl β-D-glucoside, α-D-glucosidase, p-nitrophenyl α-D-glucoside, β-N-acetyl-D-glucosaminedase, p-nitrophenyl β-N-acetyl-D-glucosaminide, α-D-mannosidase, and p-nitrophenyl α-D-mannoside.
b) PIPES-NaOAc buffer (0.01M PIPES, 0.2M NaOAc and 0.01 mM EDTA, pH 6.5). This buffer was prepared according to the literature procedure [Dale et al., Biochemistry 1985, 24, 3530].
d) α-D-Glucosidase: 1.5 mg of solid protein (70 units/mg) were dissolved in 1 mL PIPES-NaOAc buffer solution and used for assays without further dilution.
g) Substrate solutions: all substrates were dissolved in the corresponding buffer solution for enzymatic assay.
(§2) For each inhibitor, five inhibitor concentrations, ranging from zero to three times Ki, were generally used to determine the Ki value. […] The amount of enzyme added in each assay was adjusted so that less than 10 percent of the substrate, with its lowest substrate concentration, would be consumed within 45 seconds. Since all of the substrates have p-nitrophenol as leaving group, the assays were monitored at 400 nanometers (nm), where the molecular extinction coefficient, ε, was calibrated to be 3204.5M^-1 cm^-1 at pH 6.5. The following illustrates the detailed procedure.
To a 1 mL disposable cuvette were added […] (μL) of the NaOAc-PIPES buffer solution, 20 μL of the inhibitor solution and 20 μL of the p-nitrophenyl β-D-glucoside solution (100 Mm in PIPES-NaoAc buffer, PH 6.5). The solution was well mixed and 20 μL of the β-D-glucosidase solution were injected into the cuvette to start the reaction. The reaction was monitored at 400 nm on a Beckman DU-70 photospectrometer for 45 seconds and the initial hydrolysis rate was calculated. The same procedure was repeated with five other substrate concentrations. After all the initial rates were accumulated, the corresponding Lineweaver-Burk plot at that inhibitor concentration was constructed.
PIPES-NaOAc buffer was used for all the enzymes except β-N-acetyl-D-glucosaminedase, for which PIPES buffer was used.

[1] = tested on: β-D-Galactosidase (jack bean); experiment: Glycosidase inhibition, β-D-galactosidase (jack bean); type: biochemical; conditions: 10 mM inhibitor in the assay
Source text: as §2

α-L-Fucosidase = α-L-Fucosidase inhibition, hydrolysis of p-nitrophenyl-α-L-fucoside; type: biochemical; conditions: for Type of fucosidase inhibition: versus fuc-pNP
Method: α-L-Fucosidase activity was measured by incubating the enzyme (0.005 Units) with fuc-pNP ([…]) in 0.4 ml of 50 mM acetate buffer, pH 5.5 for 20 minutes at 25° C. in the absence and presence of the azasugars of the present invention. The reaction was stopped by the addition of 0.8 ml of 2 Mm glycine buffer, pH 10.5. The amount of formed p-nitrophenol was determined by optical density spectroscopy at a wavelength of 400 nm.

β-Glucosidase (SA) = experiment: Glycosidase inhibition, β-glucosidase from sweet almond; type: biochemical; conditions: kinetic analysis
Source text: as §1
b) PIPES-NaOAc buffer (0.01M PIPES, 0.2M NaOAc and 0.01 mM EDTA, pH 6.5). This buffer was prepared according to the literature procedure [Dale et al., Biochemistry 1985, 24, 3530]. […]
For each inhibitor, five inhibitor concentrations, ranging from zero to three times Ki, were generally used to determine the Ki value. […] Since all of the substrates have p-nitrophenol as leaving group, the assays were monitored at 400 nanometers (nm), where the molecular extinction coefficient, ε, was calibrated to be 3204.5M^-1 cm^-1 at pH 6.5. […]
To a 1 mL disposable cuvette were added 950 microliters (μL) of the NaOAc-PIPES buffer solution, 20 μL of the inhibitor solution and 20 μL of the p-nitrophenyl β-D-glucoside solution (100 Mm in PIPES-NaoAc buffer, PH 6.5). […] The reaction was monitored at 400 nm on a Beckman DU-70 photospectrometer for 45 seconds and the initial hydrolysis rate was calculated. […]

[2] = target: T2, α-Glucosidase Type I (calf liver) (Bos taurus, UniProt A0A3Q1M9D9); experiment: Glycosidase inhibition, α-glucosidase Type I (calf liver); type: biochemical; conditions: footnote not given
T2 construct: host or cells: calf liver
T2 sequence (A0A3Q1M9D9 1-839): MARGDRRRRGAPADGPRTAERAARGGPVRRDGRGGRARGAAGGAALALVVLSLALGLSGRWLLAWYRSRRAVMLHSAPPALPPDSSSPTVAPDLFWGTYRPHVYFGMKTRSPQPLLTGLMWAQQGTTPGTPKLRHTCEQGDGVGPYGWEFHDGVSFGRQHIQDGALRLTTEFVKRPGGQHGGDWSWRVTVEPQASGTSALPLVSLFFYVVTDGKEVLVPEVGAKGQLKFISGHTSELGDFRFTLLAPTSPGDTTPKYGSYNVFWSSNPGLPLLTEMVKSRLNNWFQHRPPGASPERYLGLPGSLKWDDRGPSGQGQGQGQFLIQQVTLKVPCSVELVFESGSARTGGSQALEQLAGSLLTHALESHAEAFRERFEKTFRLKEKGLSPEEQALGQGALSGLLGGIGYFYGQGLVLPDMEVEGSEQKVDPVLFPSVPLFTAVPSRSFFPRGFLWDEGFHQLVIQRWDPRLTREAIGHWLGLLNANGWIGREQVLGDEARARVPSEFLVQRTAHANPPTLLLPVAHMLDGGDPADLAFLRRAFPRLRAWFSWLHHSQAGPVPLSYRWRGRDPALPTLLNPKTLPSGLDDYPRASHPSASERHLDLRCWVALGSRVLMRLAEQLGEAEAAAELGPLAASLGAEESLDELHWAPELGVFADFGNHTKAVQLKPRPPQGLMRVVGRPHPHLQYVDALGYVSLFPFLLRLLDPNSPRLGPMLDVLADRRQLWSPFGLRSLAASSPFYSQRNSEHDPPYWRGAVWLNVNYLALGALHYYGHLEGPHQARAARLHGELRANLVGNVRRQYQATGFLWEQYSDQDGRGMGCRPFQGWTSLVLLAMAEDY

[3] = tested on: AIDS virus gp160 envelope protein precursor; conditions: Walker et al., Proc. Natl. Acad. Sci. 1987, 84, 8120; cited from earlier work
[4] = pH 6.5, p-nitrophenyl α-D-glucoside, Lineweaver-Burk, read-out: Ki (M), α-Glucosidase (BY)
[5] = fuc-pNP substrate, 50 mM acetate buffer, pH 5.5, 25° C., read-out: Ki (mM), α-L-Fucosidase Inhibition (Table 2)

T1 sequence (P07265 whole entry): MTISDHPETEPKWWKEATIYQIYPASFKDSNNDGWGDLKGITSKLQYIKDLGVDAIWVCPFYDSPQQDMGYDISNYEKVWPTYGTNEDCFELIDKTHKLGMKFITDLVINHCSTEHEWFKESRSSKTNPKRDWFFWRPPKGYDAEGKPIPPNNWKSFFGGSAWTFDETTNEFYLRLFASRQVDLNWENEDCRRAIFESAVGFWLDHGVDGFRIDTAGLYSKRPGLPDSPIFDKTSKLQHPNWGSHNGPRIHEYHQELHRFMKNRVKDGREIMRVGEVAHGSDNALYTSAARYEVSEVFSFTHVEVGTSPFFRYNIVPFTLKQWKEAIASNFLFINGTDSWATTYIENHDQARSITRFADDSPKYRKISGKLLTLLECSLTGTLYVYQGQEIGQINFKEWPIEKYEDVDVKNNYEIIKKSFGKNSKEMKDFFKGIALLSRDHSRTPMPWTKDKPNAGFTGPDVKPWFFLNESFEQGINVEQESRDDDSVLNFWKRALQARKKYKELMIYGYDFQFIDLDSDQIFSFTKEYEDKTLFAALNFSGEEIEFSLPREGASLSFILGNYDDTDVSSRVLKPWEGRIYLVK

Compound: OCC1NCC(O)C(O)C1O (stereo not shown) [Compound 23, 1-deoxynojirimycin]
- Ki (α-Glucosidase (BY)): 8.67e-06 M
- Inhibition of β-D-Galactosidase (jack bean) [1]: No inhibition

Compound: C[C@H]1NC[C@H](O)[C@@H](O)[C@@H]1O [Compound 3c, 1,5,6-Trideoxy-1,5-imino-D-glucitol]
- Ki (α-Glucosidase (BY)): 0.00156 M

Compound: Oc1ccccc1 [phenol]
- Ki (α-L-Fucosidase; noncompetitive inhibitor, analog of p-nitrophenol, read-out: Kis): 0.18 ± 0.02 mM
- Type of fucosidase inhibition (α-L-Fucosidase): noncompetitive inhibitor

Compound: CC1C(O)C(O)C(O)C[N+]1(C)[O-] [Compound 18, N-Methyl-1,5,6-trideoxy-1,5-imino-D-glucitol oxide]
- Ki (α-Glucosidase (BY); [4]): 0.00695 M
- Potency relative to Compound 17, β-glucosidase from sweet almond (β-Glucosidase (SA)): less potent inhibitor than Compound 17

Compound: CN1CC(O)C(O)C(O)C1CO (stereo not shown) [Compound 19, N-methyl 1-deoxynojirimycin]
- Ki (α-Glucosidase (BY)): 0.000369 M
- Ki [2]: 70 nM

Compound: C[C@@H]1OC(O)[C@@H](O)[C@H](O)[C@@H]1O (stereo partly drawn) [L-Fucose]
- Ki (α-L-Fucosidase; competitive inhibitor versus fuc-pNP, read-out: Ki versus fuc-pNP): 0.3 ± 0.01 mM
- Ki (α-L-Fucosidase; [5]): 0.3 ± 0.1 mM
- Type of fucosidase inhibition (α-L-Fucosidase): competitive inhibitor

Compound: C[C@@H]1[C@@H](O)[C@H](O)[C@@H](O)CN1C [Compound 17, N-Methyl-1,5,6-trideoxy-1,5-imino-D-glucitol]
- Ki (α-Glucosidase (BY); [4]): 0.00178 M

Compound: OC[C@H]1NC[C@@H](O)[C@@H](O)[C@@H]1O [D-1-deoxymannojirimycin, 1,5-dideoxy-1,5-imino-D-mannitol]
- Ki (α-L-Fucosidase; [5]): 0.03 ± 0.01 mM

Compound: OC1CN2CCC(O)C2C(O)C1O (stereo not shown) [castanospermine, 1,6,7,8-tetrahydroxyoctahydroindolizine]
- Effect on processing of AIDS virus gp160 envelope protein precursor [3]: inhibit the processing of the AIDS virus gp160 envelope protein precursor

Compound: OCC1NCC(O)C(O)C1O [Compound 124, D-1-deoxytalonojirimycin]
- Ki (α-L-Fucosidase; [5]): 0.05 ± 0.006 mM
